# Measured values: patent publication US20080193505A1, “Nutritional Compositions For Modulating Vitamin C Bio-Availability” (Nestec S.A., priority 2005, published 2008)
# Tested on: SVCT1
# Assay: Real-time PCR in-vitro test of SVCT1 gene expression in primary keratinocytes
# Type: cell-based, human
# Details: NHEK; 10 μM
# Method: Confluent primary keratinocytes (NHEK) were treated with a test compound or subsequently used for reverse transcription and real-time PCR analysis of SVCT1 and SVCT2. 18S-rRNA and GAPDH mRNA analysis served as endogenous control (housekeeping genes).
# Primary adult epidermal keratinocytes (NHEK) for Cambrex Company (USA, Ordering number: CC-2501) have been used in this study. They were grown in KGM medium (Cambrex Company, USA, Ordering number: CC-3101 and CC-4131) on fibronectin and collagen type I coated plastic dishes (6- or 12-well plates) at 37° C. and 5% CO2 and expanded until passage 4 where they were used for further experiments.
# NHEK cells at passage 4 were seated in 6 well plates at a density of 5000 cells/cm2, determined by means of a Thoma chamber under a light microscope. Cells were grown to 100% confluence within 5-6 days with medium changed every second day and were further used for in vitro-test for gene expression as depicted schematically in FIG. 1.
# After removal of the supernatant the cells were rinsed twice with Dubellco's phophate buffered saline (PBS, Sigma, Germany), cells were lysed with 350 μl of a lysis buffer (Buffer RL, Qiagen AG, Basel, Switzerland) containing 1% β-mercaptoethanol (Sigma, USA) and total RNAs from cell lysates were extracted using the QIAshredder column and the RNeasy® Mini Kit (Qiagen AG, Basel, Switzerland). RNA quantification was performed using the Ribogreen® RNA quantitation Kit (Molecular Probes, USA) on 96-well plates and a fluorescence microplate reader (Spectra fluor plus F 129005, Tecan). The measurements were done in duplicate. The samples were diluted either 1:680 or 1:3400 in a final volume of 100 μl 1×TE buffer. Dilutions of the ribosomal RNA in a concentration of 1, 0.5, 0.1, 0.02, 0 μg/ml were used as standards and the measurement was performed by fluorimetry at 485 nm and 538 nm. RNA quantification was then calculated compared to the standard curve. Integrity of RNA was controlled using agarose gel electrophoresis (1% agarose in TBE: 90 mM Tris/HCl pH 8.0, 80 mM Boric acid, 3 mM EDTA in ddH2O).
# For reverse transciption 2 μl pd(N)6 random hexamers (Amersham Biosciences, Art. n° 272080, England) and 1 μl dNTP (10 mM, Amersham Biosciences, Art. n° 272050, −60, −70, −80, England) were added to 2 μg RNA in nuclease-free water (Ambion, USA) in a final volume of 12 μl. After 5 min incubation at 65° C., samples were immediately placed on ice and quickly centrifuged. Then, 4 μl of 5× first strand buffer (250 mM NaCl, 0.1 mM EDTA, 1 mM DTT, 0.1% (V/v) NP-40, 50% (v/v) glycerol), 2 μl of dithiothreitol, 1 μl of RNase inhibitor and 1 μl of reverse transcriptase SuperScript II RNase H^− (SUPERase-In, 20 U/μl, Ambion, Art. n° 2694, USA) were added (final volume 20 μl). […] The sample was then kept in the freezer at −20° C. until further use.
# The real-time PCR was performed according to the TaqMane method in 96 well plates (96WP) using assays-on-demand primer and probes (SVCT1: Hs00195277_ml, SVCT2:, Hs00192765_ml, 18S-rRNA: 4310893E, GAPDH: 4310884E Applied Biosystems, USA). Analysis was done in triplicate using a master mix (3.5×) which contained 43.7 μl TaqMan® 2× Universal PCR master mix (Applied Biosystems, USA), 4.4 μl assays-on-demand primers and probes, 21.9 μl nuclease-free water and 17.5 μl cDNA (87.5 ng=[…] per replicate). Triplicates of 25 μl master mix were loaded on a 96 well ABI PRISM reaction plate (Applied Biosystems, USA), covered with a transparent optical adhesive cover and centrifuged three times at 200 rpm for 1 min or until all air-bubbles had been removed. The PCR reaction was then performed in the ABI PRISMS 7000 Sequence Detection System (Applied Biosystems, USA) using the following temperature program: activation of the enzyme: 2 min at 50° C.; denaturation: 10 min at 95° C. and 40 cycles target amplification: 15 sec […] at 95° C. and 1 min extension at 60° C.
row,Compound,influence on expression
1,"Oc1ccc(C2COc3cc(O)ccc3C2)cc1 (racemic) [equol, (R,S)-equol]",did not show any influence
2,COc1cc(/C=C/C(=O)CC(=O)/C=C/c2ccc(O)c(OC)c2)ccc1O [curcumin],did not show any influence
3,O=c1c(-c2ccc(O)cc2)coc2cc(O)cc(O)c12 [genistein],did not show any influence
4,"COc1ccc([C@@H]2CC(=O)c3c(O)cc(O)cc3O2)cc1O [hesperetin/hesperidin, hesperetin]",did not show any influence
5,"O=c1c(O)c(-c2ccc(O)c(O)c2)oc2cc(O)cc(O)c12 [quercitin, quercetin]",did not show any influence
6,(−) epigallocatechin gallate [(−) epigallocatechin gallate (EGCg)],did not show any influence

# Same assay, conditions: summary statement in description
row,Compound,transcription of SVCT1 mRNA
1,[Cl-].[Cl-].[Zn+2] [ZnCl2],significantly down-regulated
2,CC1=C(/C=C/C(C)=C/C=C/C(C)=C/C(=O)O)C(C)(C)CCC1 [all-trans retinoic acid],significantly down-regulated
3,C[S+]([O-])CCCCN=C=S (stereo not shown) [sulforaphane],significantly down-regulated

# Tested on: HaCaT cells
# Assay: 14C-labelled ascorbic acid up-take in HaCaT cells (oxidative stress model)
# Type: cell-based, human
# Details: iron salt treated cells
# Method: Confluent HaCaT cells were treated for 18-24 h with a test compound or control, incubated with ^14C-labelled ascorbic acid at two different concentrations (5 μM and 250 μM) for 5 min, 10 min, 30 min, 60 min, 90 min and 120 min. Cells were lysed and the radiolabel in the supernatant and the cell lysate was quantified by scintillation counting.
# Confluent HaCaT cells were treated for 2 h with 50 μM menadione (black rhombus), 500 μM H2O2 (triangles), conditioned medium obtained from UV-irradiated HaCaT cells (squares) or control (grey rhombus) and subsequently incubated with 50 μM ^14C-labelled ascorbic acid for 5 min, 10 min, 30 min, 60 min, 90 min and 120 min. Cells were lysed and the radiolabel in supernatant and cell lysate quantified by scintillation counting.
# Confluent HaCaT cells were treated with 50 μM FeCl3 (triangles) or controls (grey rhombus) for 24 h and for additional 2 h with 50 μM menadione (filled symbols) or controls (open symbols). Subsequently, cells were incubated with 50 μM ^14C-labelled ascorbic acid for 5 min, 10 min, 30 min, 60 min, 90 min and 120 min, cells were lysed and the radiolabel in supernatant and cell lysate quantified by scintillation counting.
# Confluent HaCaT cells were incubated with or without test compound (aqueous FeCl3 solution in different concentrations) for 18-24 h and eventually stressed for further 2 h with 50 μM menadione, 500 μM H2O2 or conditioned medium obtained from UV-irradiated HaCaTs. Then cells were washed twice with PBS and incubated with 300 μl or 400 μl of ^14C-labelled ascorbic acid at different concentrations of (5 μM, 50 μM or 250 μM) by diluting the prepared stock solution in the appropriate amount of transfer buffer. After incubation at 37° C. for different periods of time (5, 10, 30, 60, 90 and 120 min) cells were immediately placed on ice, supernatant removed and frozen, cells washed twice with ice-cold PBS and finally harvested with a cell scraper and 300 μl or 400 μl urea buffer (9.5M urea, 10 mM Tris/HCl pH 8.0, 2 mM EDTA pH 8.0). Amount of radiolabel in supernatant and cell lysate was then measured by scintillation counting of a dilution of 50 μl supernatant or 200 μl of cell lysate in 9 ml scintillation cocktail. Obtained data were analysed by blotting incubation time versus ascorbic acid up-take (either as percentage or nmolar).
row,Compound,Vitamin C uptake by the cell
1,[Cl][Fe]([Cl])[Cl] [FeCl3],enlarged

# Same assay, conditions: similar conditions as for FeCl3; data not shown
row,Compound,ascorbic acid up-take in the oxidative stress model
1,CC(=O)N[C@@H](CS)C(=O)O [N-acetyl-cysteine],increase ascorbic acid up-take
2,N[C@@H](CCC(=O)N[C@@H](CS)C(=O)NCC(=O)O)C(=O)O [glutathione],increase ascorbic acid up-take
3,NCCCC[C@H](N)C(=O)O [lysine],increase ascorbic acid up-take
